According to publication PMC4335513 (Critical Care, 2015):
Converted amounts (≈) assume the structure as drawn. Read-outs that look alike come from different tables or passages of the source. *1 amine or outer side, *2 acyl side, *3 side chain or, on linkers, in order; H or OH if unused. Where a SMILES comes first, the peptide text is derived from it. Bridges are numbered along the chain shown (N, C = ends). [ ]: non-standard residue; d: D form. The star is where a group is joined. pTerphenylCO(4''-OnC5H11) = CCCCCOc1ccc(-c2ccc(-c3ccc(C(=O)*)cc3)cc2)cc1; Orn(4R-OH,5R-OH) = O=C([C@H](C[C@@H](O)[C@@H](O)N[*:3])N[*:1])[*:2]; hTyr(3S-OH,4S-OH) = N[C@H](C(=O)O)[C@H](O)[C@@H](O)c1ccc(O)cc1; Pro(3S-OH,4S-Me) = C[C@H]1CN[C@H](C(=O)O)[C@H]1O; Hyp = O=C(O)[C@@H]1C[C@@H](O)CN1

What was measured:
[1] = Plasma pharmacokinetics in critically ill ICU patients (DALI study), noncompartmental analysis; type: in vivo, human
Procedure: The Defining Antibiotic Levels in Intensive care unit patients (DALI) study was a prospective, multicenter PK point-prevalence study. The protocol has been published in detail previously, and the participating investigators are listed in Additional file 1).
The choice of antifungal agent and dosing was at the discretion of the treating clinician. Each patient had three blood samples taken: blood sample A was a peak concentration taken 30 minutes after completion of intravenous infusion; blood sample B was a mid-dose blood sample taken 50% of the way through a dosing interval; and blood sample C was a pre-dose concentration taken at the end of a dosing interval (within 30 minutes of the next dose).
The stationary phase was a Kinetex C8 (50 × 2.10 mm, 1.7 μm) UHPLC column (Phenomenex, Torrance, CA, USA).
For anidulafungin analysis, the supernatant was washed with dichloromethane to remove lipid-soluble components. […] The methods were validated for linearity, LLOQ, matrix effects, precision and accuracy, and stock stability by using the FDA criteria for bioanalysis.
Clearance (CL) was calculated by using the equation Dose/AUC0-∞.

[2] = Clinical outcome of therapy and mortality at 30 days in ICU patients; type: in vivo, human; details: for patients with positive clinical outcome: completion of treatment course without change or addition of antifungal therapy; for 30-day mortality: died by day 30; for patients with indeterminate clinical outcome: outcome of therapy could not be judged
Procedure: (§1) Data collection was performed by trained staff at each participating center and entered into a case report form. Various demographic and clinical data were collected, including age, gender, height, weight, admission diagnosis, presence of extracorporeal circuits (for example, renal replacement therapy), clinical outcome of infection, and mortality at 30 days. A positive clinical outcome of therapy was defined as completion of treatment course without change or addition of antifungal therapy and with no additional antifungals commenced within 48 hours of discontinuation of the therapy, and if the outcome of therapy could not be judged for any reason, it was recorded as indeterminate. Also, organ-function data (including renal function: serum creatinine concentration during studied dosing interval; 24-hour measured urinary creatinine clearance (CrCL) (where available), antibiotic dosing (dose and frequency, time of dosing and sampling, day of antibiotic therapy), and infection data (including known or presumed pathogen and pathogen MIC) were collected.

[3] = parameters: AUC 0–24: unit not given beside the values; details: ICU patients; mean (%CV); ref Liu et al. [25]; cited from earlier work
Source text: Table 2 Comparison of exposures achieved in this study with other studies (mean (%CV)) | column: Anidulafungin / Liu et al. (ICU patients)

[4] = parameters: AUC 0–24: unit not given beside the values; details: healthy volunteers; mean (%CV); ref Liu et al. [25]; cited from earlier work
Source text: Table 2 Comparison of exposures achieved in this study with other studies (mean (%CV)) | column: Anidulafungin / Liu et al. (healthy volunteers)

[5] = parameters: AUC 0–24: unit not given beside the values; details: general patients; mean (%CV); ref Wurthwein et al. [26]; cited from earlier work
Source text: Table 2 Comparison of exposures achieved in this study with other studies (mean (%CV)) | column: Caspofungin / Wurthwein et al. (general patients)

[6] = parameters: AUC 0–24: unit not given beside the values; details: healthy volunteers; mean (95% CI); ref Stone et al. [27]; cited from earlier work
Source text: Table 2 Comparison of exposures achieved in this study with other studies (mean (%CV)) | column: Caspofungin / Stone et al. [27]^a (healthy volunteers)

[7] = surgical ICU patients; ref Nguyen et al. [28]; cited from earlier work
Source text: However, variability was higher compared with healthy volunteers (Table 2). This may be attributed to underlying pathophysiological changes that occur in ICU patients. The observed anidulafungin variability in AUC0–24, Cmin, and Cmax was not as high as observed in the study by Liu et al., who recruited a larger cohort of surgical ICU patients but was higher than variability observed in healthy volunteers (Table 2). The PK parameter estimates were ...

[8] = system: C. albicans; test: Pathogen MIC reported for patient isolate; type: cell-based; details: Candida albicans
Procedure: as §1

[9] = human, in vivo; cited from earlier work

CCCCCOc1ccc(-c2ccc(-c3ccc(C(=O)N[C@H]4C[C@@H](O)[C@@H](O)NC(=O)[C@@H]5[C@@H](O)[C@@H](C)CN5C(=O)[C@H]([C@@H](C)O)NC(=O)[C@H]([C@H](O)[C@@H](O)c5ccc(O)cc5)NC(=O)[C@@H]5C[C@@H](O)CN5C(=O)[C@H]([C@@H](C)O)NC4=O)cc3)cc2)cc1 [Anidulafungin, anidulafungin] ({pTerphenylCO(4''-OnC5H11)}-[Orn(4R-OH,5R-OH)]T[Hyp][hTyr(3S-OH,4S-OH)]T[Pro(3S-OH,4S-Me)]; lactam 1-C)
AUC 0–24 ([1]; This study, ICU patients, anidulafungin 100 mg, plasma, UHPLC-MS/MS, linear trapezoidal, mean (%CV), n = 9): 55 (28) | C max ([1]; This study, ICU patients, anidulafungin 100 mg, plasma, observed peak 30 min after end of iv infusion, mean (%CV), n = 9): 3.9 (29) | C min ([1]; This study, ICU patients, anidulafungin 100 mg, plasma, observed pre-dose concentration, mean (%CV), n = 9): 1.8 (30) | patients with positive clinical outcome [2]: 67% | 30-day mortality [2]: 11% | patients with indeterminate clinical outcome [2]: 33% | AUC 0–24 [3]: 93.0 (41) | C max [3]: 7.7 (56) | C min [3]: 3.0 (44) | AUC 0–24 [4]: 105.0 (22) | C max [4]: 7.0 (22) | C min [4]: 3.1 (25)

CC[C@H](C)C[C@H](C)CCCCCCCCC(=O)N[C@H]1C[C@@H](O)[C@@H](NCCN)NC(=O)[C@@H]2[C@@H](O)CCN2C(=O)[C@H]([C@H](O)CCN)NC(=O)[C@H]([C@H](O)[C@@H](O)c2ccc(O)cc2)NC(=O)[C@@H]2C[C@@H](O)CN2C(=O)[C@H]([C@@H](C)O)NC1=O [Caspofungin, caspofungin]
AUC 0–24 ([1]; This study, ICU patients, caspofungin 70 mg (loading dose), 70% sampled on day 1, plasma, UHPLC-MS/MS, mean (%CV)): 52.0 (53) | C max ([1]; This study, ICU patients, caspofungin 70 mg (loading dose), plasma, observed peak, mean (%CV)): 3.9 (55) | C min ([1]; This study, ICU patients, caspofungin 70 mg (loading dose), plasma, observed pre-dose, mean (%CV)): 1.5 (57) | patients with positive clinical outcome [2]: 43% | 30-day mortality [2]: 29% | patients with indeterminate clinical outcome [2]: 11% | AUC 0–24 [5]: 170.0 (34) | C max [5]: 13.8 (31) | AUC 0–24 [6]: 97.0 (87–109) | C max [6]: 12.1 (11–13) | C min [6]: 1.4 (1.1–1.8) | Cmin (range observed) [7]: 500 to 4100 ng/mL

OC(Cn1cncn1)(Cn1cncn1)c1ccc(F)cc1F [Fluconazole, fluconazole]
C max ([1]; human, in vivo): 20 (14) | AUC 0–24 ([1]; human, in vivo, SD): 359 (259) | patients with positive clinical outcome [2]: 27% | 30-day mortality [2]: 47% | patients with indeterminate clinical outcome [2]: 40% | MIC [8]: 0.75 µg/mL (≈ 2.45 µM) | AUC 0–24 [9]: 409 (336–482) | C max [9]: 25 (22–28)
